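Exposure lasted 48 hours, with cells grown in 96-well plates and compounds tested at five concentrations. GI50 = concentration required for 50% inhibition of growth. TGI: total growth inhibition.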
Legend:
Assay in all cases: NCI-60 cell line screen, 48 h
NCI-H522 lung = test system: NCI-H522 lung
HT29 colon = test system: HT29 colon
RPMI-8226 leukemia = test system: RPMI-8226 leukemia
HCT-15 colon = test system: HCT-15 colon
SNB-75 CNS = test system: SNB-75 CNS
OVCAR-4 ovarian = test system: OVCAR-4 ovarian
HOP-92 NSCLC = test system: HOP-92 NSCLC
K-562 leukemia = test system: K-562 leukemia
UACC-257 melanoma = test system: UACC-257 melanoma
SK-MEL-28 melanoma = test system: SK-MEL-28 melanoma
HL-60(TB) leukemia = test system: HL-60(TB) leukemia
T-47D breast = test system: T-47D breast
EKVX NSCLC = test system: EKVX NSCLC
SR leukemia = test system: SR leukemia
MALME-3M melanoma = test system: MALME-3M melanoma
CCRF-CEM leukemia = test system: CCRF-CEM leukemia
MCF7 breast = test system: MCF7 breast
U251 CNS = test system: U251 CNS
ACHN renal = test system: ACHN renal
TK-10 renal = test system: TK-10 renal
NCI-H460 lung = test system: NCI-H460 lung
SNB-19 CNS = test system: SNB-19 CNS
NCI/ADR-RES ovarian = test system: NCI/ADR-RES ovarian
NCI-H23 lung = test system: NCI-H23 lung
SW-620 colon = test system: SW-620 colon
IGROV1 ovarian = test system: IGROV1 ovarian
NCI-H226 lung = test system: NCI-H226 lung
SF-539 CNS = test system: SF-539 CNS
MDA-MB-435 = test system: MDA-MB-435
MOLT-4 leukemia = test system: MOLT-4 leukemia
SK-MEL-2 melanoma = test system: SK-MEL-2 melanoma
HOP-62 NSCLC = test system: HOP-62 NSCLC
LOX IMVI melanoma = test system: LOX IMVI melanoma
HS 578T breast = test system: HS 578T breast
OVCAR-5 ovarian = test system: OVCAR-5 ovarian
BT-549 breast = test system: BT-549 breast
KM12 colon = test system: KM12 colon
MDA-MB-231 breast = test system: MDA-MB-231 breast
RXF 393 renal = test system: RXF 393 renal
A549 NSCLC = test system: A549 NSCLC
COLO 205 colon = test system: COLO 205 colon
M14 melanoma = test system: M14 melanoma
A498 renal = test system: A498 renal
SF-268 CNS = test system: SF-268 CNS
PC-3 prostate = test system: PC-3 prostate
SF-295 CNS = test system: SF-295 CNS
SK-OV-3 ovarian = test system: SK-OV-3 ovarian
MDA-N = test system: MDA-N
UACC-62 melanoma = test system: UACC-62 melanoma
CAKI-1 renal = test system: CAKI-1 renal
SK-MEL-5 melanoma = test system: SK-MEL-5 melanoma
HCT-116 colon = test system: HCT-116 colon
HCC-2998 colon = test system: HCC-2998 colon
UO-31 renal = test system: UO-31 renal
OVCAR-8 ovarian = test system: OVCAR-8 ovarian
OVCAR-3 ovarian = test system: OVCAR-3 ovarian
SN12C renal = test system: SN12C renal
DU-145 prostate = test system: DU-145 prostate

O=c1c(Br)c(-c2ccccc2)[nH]c2ccccc12
GI50 (NCI-H522 lung): > 100 µM
TGI (NCI-H522 lung): > 100 µM
TGI (HT29 colon): > 100 µM
TGI (RPMI-8226 leukemia): > 100 µM
TGI (HCT-15 colon): > 100 µM
GI50 (SNB-75 CNS): 63.1 µM
TGI (SNB-75 CNS): > 100 µM
TGI (OVCAR-4 ovarian): > 100 µM
GI50 (HOP-92 NSCLC): 19 µM
TGI (HOP-92 NSCLC): > 100 µM
GI50 (K-562 leukemia): 28.9 µM
TGI (K-562 leukemia): > 100 µM
TGI (UACC-257 melanoma): 98 µM
TGI (SK-MEL-28 melanoma): > 100 µM
TGI (HL-60(TB) leukemia): 56.6 µM
GI50 (T-47D breast): 36.4 µM
TGI (T-47D breast): > 100 µM
GI50 (EKVX NSCLC): 41.5 µM
TGI (EKVX NSCLC): > 100 µM
TGI (SR leukemia): > 100 µM
TGI (MALME-3M melanoma): > 100 µM
TGI (CCRF-CEM leukemia): > 100 µM
TGI (MCF7 breast): > 100 µM
TGI (U251 CNS): > 100 µM
TGI (ACHN renal): > 100 µM
TGI (TK-10 renal): > 100 µM
GI50 (NCI-H460 lung): 3.54 µM
TGI (NCI-H460 lung): > 100 µM
GI50 (SNB-19 CNS): > 100 µM
TGI (SNB-19 CNS): > 100 µM
TGI (NCI/ADR-RES ovarian): > 100 µM
TGI (NCI-H23 lung): > 100 µM
TGI (SW-620 colon): > 100 µM
GI50 (IGROV1 ovarian): > 89.4 µM
TGI (IGROV1 ovarian): > 100 µM
GI50 (NCI-H226 lung): 37.1 µM
TGI (NCI-H226 lung): > 100 µM
TGI (SF-539 CNS): > 100 µM
TGI (MDA-MB-435): > 100 µM
GI50 (MOLT-4 leukemia): 20.8 µM
TGI (MOLT-4 leukemia): > 75.6 µM
GI50 (SK-MEL-2 melanoma): > 100 µM
TGI (SK-MEL-2 melanoma): > 100 µM
TGI (HOP-62 NSCLC): > 100 µM
TGI (LOX IMVI melanoma): > 100 µM
TGI (HS 578T breast): > 100 µM
GI50 (OVCAR-5 ovarian): > 100 µM
TGI (OVCAR-5 ovarian): > 100 µM
TGI (BT-549 breast): > 100 µM
GI50 (KM12 colon): 5.63 µM
TGI (KM12 colon): 63.8 µM
TGI (MDA-MB-231 breast): 11.8 µM
TGI (RXF 393 renal): > 100 µM
GI50 (A549 NSCLC): 0.168 µM
TGI (A549 NSCLC): 1.12 µM
TGI (COLO 205 colon): > 100 µM
TGI (M14 melanoma): > 100 µM
GI50 (A498 renal): 31.6 µM
TGI (A498 renal): > 100 µM
GI50 (SF-268 CNS): > 100 µM
TGI (SF-268 CNS): > 100 µM
GI50 (PC-3 prostate): 23.6 µM
TGI (PC-3 prostate): > 78.3 µM
GI50 (SF-295 CNS): 32.9 µM
TGI (SF-295 CNS): > 100 µM
TGI (SK-OV-3 ovarian): > 100 µM
TGI (MDA-N): > 85.4 µM
TGI (UACC-62 melanoma): > 100 µM
GI50 (CAKI-1 renal): 0.066 µM
TGI (CAKI-1 renal): 0.892 µM
GI50 (SK-MEL-5 melanoma): 13.6 µM
TGI (SK-MEL-5 melanoma): 29.9 µM
TGI (HCT-116 colon): > 100 µM
GI50 (HCC-2998 colon): > 100 µM
TGI (HCC-2998 colon): > 100 µM
TGI (UO-31 renal): 6.58 µM
TGI (OVCAR-8 ovarian): > 100 µM
TGI (OVCAR-3 ovarian): > 100 µM
GI50 (SN12C renal): > 100 µM
TGI (SN12C renal): > 100 µM
TGI (DU-145 prostate): > 100 µM

Reference: PubChem BioAssay (NCI)
